Source: patent US12428433B2, “Fluorine-containing heterocyclic derivatives with macrocyclic structure and use thereof” (ScinnoHub Pharmaceutical Co., Ltd, priority 2019, dated 2025)
Read-outs that look alike come from different tables or passages of the source.

Tests used:
[1] = In-vivo pharmacokinetic study on SD rats, intravenous and oral; conditions: rat, plasma; for AUC(0-t): read-out: Area under curve AUC(0-t); for Cmax: read-out: Concentration to peak Cmax; for half-life: read-out: Half-life period t1/2 (converted); for bioavailability: read-out: Bioavailability F %
Method: Species: SD rats, SPF level. Source: the animals were transferred from the animal repository (999M-017) of the experimental institution of Shanghai Sippe-Bk Lab Animal Co., Ltd. Quantity: 3 rats for each formulation.
2.1 An appropriate amount of test samples were accurately weighed, added to a final volume of 5% DMSO, 10% polyethylene glycol-15 hydroxystearate and 85% normal saline, and fully mixed by vortex or ultrasound to obtain 0.2 mg/mL administration solution for intravenous administration.
2.2 An appropriate amount of test samples were accurately weighed, added to a final volume of 5% DMSO, 10% polyethylene glycol-15 hydroxystearate and 85% normal saline, and fully mixed by vortex or ultrasound to obtain 0.5 mg/mL administration solution for oral and intragastric administration.
Weighing was carried out before administration, and the dosage was calculated according to the weight. Intravenous administration, or oral intragastric administration was carried out.
The blood sampling was carried out before administration and 0.083 hour, 0.25 hour, 0.5 hour, 1 hour, 2 hours, 4 hours, 6 hours, 8 hours, and 24 hours after administration.
The blood sampling was carried out through a jugular vein or other suitable modes, and about 0.20 mL of each sample was collected. Heparin sodium was used for anticoagulation, the collected blood samples were placed on ice, and plasma was centrifuged within 2 hours (the centrifugation was carried out by a centrifugal force of 6,800 g for 6 minutes at 2° C. to 8° C.). The collected plasma samples were stored in a refrigerator at −80° C. before analysis, and the remaining plasma samples after analysis were continuously stored in the refrigerator at −80° C. for temporary storage.
A plasma concentration of a test subject was detected, a plasma concentration-time curve was drawn, and BLQs were all recorded as 0. […] According to blood concentration data at different time points, the pharmacokinetic parameters such as AUC(0-t), T1/2 and Cmax were calculated by WinNonlin.

Ba/F3-LMNA-NTRK1-G667S = assay: In-vitro cell viability (CellTiter-Glo), BaF3 cell lines; assay type: cell-based; conditions: Mus musculus, 72 hours
Method: (§1) Hefei Precedo Biomedical Technology Co., Ltd. was commissioned to complete the testing example, and the cell lines used were constructed by this company.
(§2) In-vitro anti-proliferative effects of the compound of the present application on 6 BaF3 cell lines were measured.
(§3) 6 Ba/F3 cell lines were cultured with RPMI 1640 (Biological Industries, Israel)+10% fetal calf serum (Biological Industries, Israel)+1% double antibiotics (Penicillin Streptomycin solution, Coring, USA), and cells were cultured for two generations after resuscitation, to be tested.
(§4) The to-be-tested compound was prepared into 10 mM mother solution with DMSO, and then diluted to 1 mM with DMSO. The solution was diluted by 3 times to prepare into 1.0000 mM, 0.3333 mM, 0.1111 mM, 0.03704 mM, 0.01235 mM, 0.00412 mM, 0.00137 mM, 0.00046 mM, 0.00015 mM, and […], and stored in a 96-well drug plate (Beaver, Suzhou), with 10 concentration gradients in total. Meanwhile, an equal volume of DMSO solvent was used as a negative control.
(§5) The prepared 1,000× compounds of 10 concentration gradients were respectively diluted by 50 times into 20× compounds with complete medium, and stored in a 96-well drug plate (Beaver, Suzhou), with 10 concentration gradients in total. Meanwhile, an equal volume of DMSO solvent was used as a negative control.
(§6) Cell suspension in logarithmic growth phase was inoculated on a 96-well white cell culture plate (Corning 3917, NY, USA), and a volume of each well was 95 μl (about 2000 cells/well).
(§7) 5 μl of 20× to-be-tested compounds were respectively added into the culture plate containing 95 μl of cell suspension above, and mixed evenly, with 2 wells for each concentration gradient. Final concentrations of the to-be-tested compounds were 1.0000 μM, 0.3333 μM, 0.1111 μM, 0.03704 μM, 0.01235 μM, 0.00412 μM, 0.00137 μM, 0.00046 μM, 0.00015 μM, and […] respectively.
(§8) Incubation was carried out in an incubator at 37° C. under 5% CO2 for 72 hours.
(§9) The following steps were carried out according to the instruction of Promega CellTiter-Glo Luminescence Cell Viability Assay Kit (Promega-G7573).
(§10) A corresponding […] value RLU of each well was obtained through reading by SpectraMax Paradigm. Cell viability data was processed by the following formula:
(§11) Cell viability(%)=(RLUDrug−RLUMin)/(RLUMax−RLUMin)*100%. Cell viabilities of compounds of different concentrations were calculated in EXCEL, then cell viability curves were made by GraphPad Prism software, and related parameters were calculated. The parameters comprised a maximum cell viability, a minimum cell viability, and an IC50 value.

Ba/F3-TEL-NTRK2 = assay: as above; assay type: cell-based; conditions: Mus musculus, 72 hours
Method: as §1, §2, §3, §4, §5, §6, §7, §8, §9, §10, §11

Ba/F3-TEL-NTRK3 = assay: as above; assay type: cell-based; conditions: Mus musculus, 72 hours
Method: as §1, §2, §3, §4, §5, §6, §7, §8, §9, §10, §11

Ba/F3-LMNA-NTRK1-F589L = assay: as above; assay type: cell-based; conditions: Mus musculus, 72 hours
Method: as §1, §2, §3, §4, §5, §6, §7, §8, §9, §10, §11

Ba/F3-LMNA-NTRK1-V573I = assay: as above; assay type: cell-based; conditions: Mus musculus, 72 hours
Method: as §1, §2, §3, §4, §5, §6, §7, §8, §9, §10, §11

Ba/F3-LMNA-NTRK1 = assay: as above; assay type: cell-based; conditions: Mus musculus, 72 hours
Method: as §1, §2, §3, §4, §5, §6, §7, §8, §9, §10, §11

| Structure (SMILES) | AUC(0-t) ([1]; IV @ 1 mg/kg) [ng·h/mL] | Cmax ([1]; IV @ 1 mg/kg) [nM] | half-life ([1]; IV @ 1 mg/kg) [h] | AUC(0-t) ([1]; PO @ 5 mg/kg) [ng·h/mL] | bioavailability ([1]; PO @ 5 mg/kg) [%] | Cmax ([1]; PO @ 5 mg/kg) [nM] | half-life ([1]; PO @ 5 mg/kg) [h] | IC50 (Ba/F3-LMNA-NTRK1-G667S) [nM] | IC50 (Ba/F3-TEL-NTRK2) [nM] | IC50 (Ba/F3-TEL-NTRK3) [nM] | IC50 (Ba/F3-LMNA-NTRK1-F589L) [nM] | IC50 (Ba/F3-LMNA-NTRK1-V573I) [nM] | IC50 (Ba/F3-LMNA-NTRK1) [nM] |
| --- | --- | --- | --- | --- | --- | --- | --- | --- | --- | --- | --- | --- | --- |
| O=C1N[C@H]2C[C@H](C2)Oc2ncc(F)cc2[C@H]2CCCN2c2ccn3ncc1c3n2 (stereo in doubt) [Positive control 1, reference compound] | 605 | 1160 | 0.45 | 2270 | 75.1 | 932 | 0.68 | 2.7 | 0.9 | 0.9 | 6.6 | 0.2 | 0.5 |
| O=C1N[C@H]2C[C@H](C2)Oc2ncc(F)cc2[C@H]2CCCN2c2nc3c1cnn3cc2F [Example 2, ((1^3E,1^4E,2^2R,5^1S,5^3S)-1^6,3^5-difluoro-4-oxa-6-aza-1(5,3)-pyrazolo[1,5-a]pyrimidine-3(3,2)-pyridine-2(1,2)-pyrrolidine-5(1,3)-cyclobutancycloheptan-7-one] | 422 | 875 | 0.33 | 1500 | 70.9 | 527 | 0.55 | 3.4 | 1.6 | 1.7 | 2.4 | 0.3 | 0.7 |
| C[C@H]1Nc2nc3c(cnn3cc2F)C(=O)N[C@H]2C[C@H](C2)Oc2ncc(F)cc21 [Example 3, (3^1S,3^3S,6^3E,6^4E,8R)-1^5,6^6-difluoro-8-methyl-2-oxo-4,7-diaza-6(3,5)-pyrazolo[1,5-a]pyrimidine-1(2,3)-pyridine-3(1,3)-cyclobutylcyclooctane-5-one] | 1480 | 573 | 5 | 8770 | 119 | 1300 | 3.01 | 8.4 | 3.4 | 5 | 1.2 | 1.1 | 1.6 |
| C[C@H]1Nc2ccn3ncc(c3n2)C(=O)N[C@H]2C[C@H](C2)Oc2ncc(F)cc21 [Positive control 2, reference compound] | 1010 | 781 | 4.54 | 3350 | 66.3 | 633 | 3 | 19.9 | 7.3 | 9.8 | 4.5 | 2.3 | 4.1 |
